From patent publication US7632794B1, “Lens care solutions comprising alkyldimonium hydroxypropyl alkylglucosides” (Bausch & Lomb Incorporated, priority 2008, dated 2009)

System: five microorganisms tested (three bacterium and two fungal strains)
Assay: Biocidal efficacy across the microorganisms tested
Format: cell-based
Settings: aqueous buffered borate solution
Source text: Accordingly, a composition containing as little as 75 ppm of S-1218 and 50 ppm of L-1010P is shown to have very strong biocidal activity against all five microorganisms.

| Substance | biocidal efficacy (in words) |
| --- | --- |
| stearyl dimoniumhydropropyl laurylglucoside | relatively high increase in biocidal efficacy |
| stearyl dimoniumhydropropyl decylglucoside | relatively high increase in biocidal efficacy |
